Measurements published in patent publication EP0399653B1, “Anticonvulsant triazolo[4,5-c]pyridine derivatives” (THE WELLCOME FOUNDATION LIMITED, priority 1989, dated 1990).
Counter-ions that a name gives are not always drawn. Like-named read-outs stand apart in the source and are kept apart here.

Assay: standard maximal electroshock test (MES), anticonvulsant activity
Format: in vivo
Settings: tested as HCl salt
Procedure: The anticonvulsant activity of certain compounds of the present invention were determined by a standard maximal electroshock test (MES); that described by L.A.Woodbury and V.D.Davenport, Arch. Int.Pharmacodyn, 1952 92 97.

[1] = ip, I.P administration, read-out: ED50.I.P
[2] = po, P.O administration, read-out: ED50.P.O

Compound	ED50 [1]	ED50 [2]
CNc1nccc2c1nnn2Cc1ccccc1F [Example 1, 1-(2-fluorobenzyl)-4-(methylamino)-1H-1,2,3-triazolo[4,5-c]pyridine]	4.5 mg/kg	4.4 mg/kg
Fc1ccccc1Cn1nnc2c(NC3CC3)nccc21 [Example 2, 4-(cyclopropylamino)-1-(2-fluorobenzyl)-1H-1,2,3-triazolo [4,5-c] pyridine]	4.8 mg/kg	6.3 mg/kg
CCNc1nccc2c1nnn2Cc1ccccc1F [Example 3, 4-(ethylamino)-1-(2-fluorobenzyl)-1H-1,2,3-triazolo[4,5-c] pyridine]	8.3 mg/kg	10.3 mg/kg
CN(C)c1nccc2c1nnn2Cc1ccccc1F [Example 4, 4-(dimethylamino)-1-(2-fluorobenzyl)-1H-1,2,3-triazolo [4,5-c]pyridine]	6.3 mg/kg	6.6 mg/kg
CNc1nccc2c1nnn2Cc1c(F)cccc1F [Example 5, 1-(2,6-difluorobenzyl)-4-(methylamino)-1H-1,2,3-triazolo [4,5-c] pyridine]	7.8 mg/kg	5.3 mg/kg
Nc1nccc2c1nnn2Cc1c(F)cccc1F [Example 6, 4-amino-1-(2,6,-difluorobenzyl)-1H-1,2,3-triazolo [4,5-c]pyridine hydrochloride]	6.3 mg/kg	3.7 mg/kg
CNc1nccc2c1nnn2Cc1cc(F)ccc1F [Example 7, 1-(2,5-difluorobenzyl)-4-(methylamino)-1H-1,2,3-triazolo [4,5-c]pyridine]	5 mg/kg	4.3 mg/kg
CNc1nccc2c1nnn2Cc1ccccc1 [Example 8, 1-benzyl-4-(methylamino)-1H-1,2,3-triazolo[4.5-c]pyridine]	7.8 mg/kg	8.9 mg/kg
Fc1cccc(F)c1Cn1nnc2c(NC3CC3)nccc21 [Example 10, 4-(cyclopropylamino)-1-(2,6-difluorobenzyl)-1H-1,2,3-triazolo[4,5-c]pyridine]	4.1 mg/kg	8.1 mg/kg
